Test results as given in paper PMC8286840, “Identifying SARS-CoV-2 antiviral compounds by screening for small molecule inhibitors of Nsp3 papain-like protease” (Biochemical Journal, 2021).
Structures can show the parent of a compound that is named as a salt. Where two headings read alike, the source gives them in different places.

Assays:
[1] = molecular target: T1, SARS-CoV-2 PLpro (nsp3 1564–1878) (Severe acute respiratory syndrome coronavirus 2, UniProt P0DTD1); experiment: biochemical; design: FRET-quenched peptide (Pro3) cleavage by PLpro, 10 min pre-incubation, slope over 20 min, normalised to no-compound control; details: low concentration screen, read-out: % of control remaining
[2] = molecular target: T1, SARS-CoV-2 PLpro (nsp3 1564–1878); experiment: biochemical; design: FRET-quenched peptide (Pro3) cleavage by PLpro, 10 min pre-incubation, slope over 20 min, normalised to no-compound control; details: high concentration screen, read-out: % of control remaining

## CC1(C)[C@@H](O[C@H]2O[C@H](C(=O)O)[C@@H](O)[C@H](O)[C@H]2O[C@@H]2O[C@H](C(=O)O)[C@@H](O)[C@H](O)[C@H]2O)CC[C@]2(C)[C@H]3C(=O)C=C4[C@@H]5C[C@@](C)(C(=O)O)CC[C@]5(C)CC[C@@]4(C)[C@]3(C)CC[C@@H]12 [Glycyrrhizic acid]
[1]; Well no.=5196
  remaining activity at 1.25 µM: 106%
[2]; Well no.=5196
  remaining activity at 3.75 µM: 93.8%

## Cc1ccc(CN2C(=O)S/C(=C\c3ccc(Cl)cc3)C2=O)cc1 [(5Z)-5-(4-chlorobenzylidene)-3-(4-methylbenzyl)-1,3-thiazolidine-2,4-dione]
[1]; Well no.=6027
  remaining activity at 1.25 µM: 94.6%
[2]; Well no.=6027
  remaining activity at 3.75 µM: 94.7%

## CSc1cccc(Nc2ncc3cc(-c4c(Cl)cccc4Cl)c(=O)n(C)c3n2)c1 [PD173955]
[1]; Well no.=2985
  remaining activity at 1.25 µM: 102%
[2]; Well no.=2985
  remaining activity at 3.75 µM: 102%

## O=C(O)CCC(CP(=O)(O)O)C(=O)O (stereo not shown) [PMPA tetrasodium]
[1]; Well no.=1219
  remaining activity at 1.25 µM: 105%
[2]; Well no.=1219
  remaining activity at 3.75 µM: 103%

## O=c1cc(-c2ccccc2)[nH]c2nc(Cl)ccc12 [7-Chloro-4-hydroxy-2-phenyl-1,8-naphthyridine]
[1]; Well no.=324
  remaining activity at 1.25 µM: 98.8%
[2]; Well no.=324
  remaining activity at 3.75 µM: 99.1%

## Cc1ccc(NC(=O)c2cccc(N(C)C)c2)cc1NC(=O)c1ccc(O)cc1 [ZM 336372]
[1]; Well no.=5878
  remaining activity at 1.25 µM: 103%
[2]; Well no.=5878
  remaining activity at 3.75 µM: 102%

## CCn1c(=O)c2c(nc(/C=C/c3ccc(OC)c(OC)c3)n2C)n(CC)c1=O [Istradefylline]
[1]; Well no.=6903
  remaining activity at 1.25 µM: 98.1%
[1]; Well no.=8461
  remaining activity at 1.25 µM: 109%
[2]; Well no.=6903
  remaining activity at 3.75 µM: 99.6%
[2]; Well no.=8461
  remaining activity at 3.75 µM: 101%

## CCN(CC)CCNC(=O)c1cc(Cl)c(N)cc1OC [Metoclopramide]
[1]; Well no.=1696
  remaining activity at 1.25 µM: 101%
[1]; Well no.=6425
  remaining activity at 1.25 µM: 99.2%
[2]; Well no.=1696
  remaining activity at 3.75 µM: 102%
[2]; Well no.=6425
  remaining activity at 3.75 µM: 95%

## O=C(O)c1c(O)cccc1O [2,6-Dihydroxybenzoic acid]
[1]; Well no.=6921
  remaining activity at 1.25 µM: 108%
[2]; Well no.=6921
  remaining activity at 3.75 µM: 105%

## C/N=C(/NC#N)NCCSCc1csc(NC(=N)N)n1 [Tiotidine]
[1]; Well no.=1877
  remaining activity at 1.25 µM: 98.5%
[2]; Well no.=1877
  remaining activity at 3.75 µM: 98.9%

## O=C(c1cc(C2CC2)on1)N(C1CCCCC1)C1CCCCC1 [CYM-5541]
[1]; Well no.=6224
  remaining activity at 1.25 µM: 97.7%
[2]; Well no.=6224
  remaining activity at 3.75 µM: 94.5%

## CCN(CC)C(=O)N[C@@H]1C[C@@H]2c3cccc4[nH]cc(c34)C[C@H]2N(C)C1 [R(+)-Terguride]
[1]; Well no.=1330
  remaining activity at 1.25 µM: 103%
[2]; Well no.=1330
  remaining activity at 3.75 µM: 104%

## c1cnc(N2CCN(Cc3ccc4c(c3)OCO4)CC2)nc1 [Piribedil maleate]
[1]; Well no.=1163
  remaining activity at 1.25 µM: 96.1%
[2]; Well no.=1163
  remaining activity at 3.75 µM: 96.2%

## Cc1[nH]c2ccc(O)cc2c1CCN [2-Methyl-5-hydroxytryptamine maleate]
[1]; Well no.=847
  remaining activity at 1.25 µM: 102%
[2]; Well no.=847
  remaining activity at 3.75 µM: 102%

## CCCCc1nc(Cl)c(CO)n1Cc1ccc(-c2ccccc2-c2nnn[nH]2)cc1 [Losartan potassium]
[1]; Well no.=2278
  remaining activity at 1.25 µM: 94.3%
[2]; Well no.=2278
  remaining activity at 3.75 µM: 95.8%

## COc1cc2c(cc1OC)[C@@]13CC[N+]4([O-])CC5=CCO[C@H]6CC(=O)N2[C@H]1[C@H]6[C@H]5C[C@@H]34 (stereo partly shown) [Brucine-N-oxide]
[1]; Well no.=3270
  remaining activity at 1.25 µM: 99.2%
[2]; Well no.=3270
  remaining activity at 3.75 µM: 102%

## CN1CCN(C2Cc3ccccc3Sc3ccc(Cl)cc32)CC1 (racemic)
[1]; Well no.=804
  remaining activity at 1.25 µM: 104%
[2]; Well no.=804
  remaining activity at 3.75 µM: 105%

## CCOc1ccn(-c2ccc(F)cc2)c(=O)c1C(=O)Nc1ccc(Oc2ccnc(N)c2Cl)c(F)c1 [BMS 777607]
[1]; Well no.=5297
  remaining activity at 1.25 µM: 94.1%
[2]; Well no.=5297
  remaining activity at 3.75 µM: 90.4%

## OCCOCCN1CCN(C2=Nc3ccccc3Sc3ccccc32)CC1 [Quetiapine (fumarate)]
[1]; Well no.=6237
  remaining activity at 1.25 µM: 98.2%
[2]; Well no.=6237
  remaining activity at 3.75 µM: 94.3%

## CCOC(OCC)P(=O)(O)CCCNCc1ccc(Cl)c(Cl)c1 [3-[(3,4-dichlorobenzyl)amino]propyl(diethoxymethyl)phosphinic acid]
[1]; Well no.=6020
  remaining activity at 1.25 µM: 98.7%
[2]; Well no.=6020
  remaining activity at 3.75 µM: 93.6%

## CC(CN(C)C)CN1c2ccccc2Sc2ccc(C#N)cc21 (stereo not shown) [Cyamemazine]
[1]; Well no.=5789
  remaining activity at 1.25 µM: 102%
[2]; Well no.=5789
  remaining activity at 3.75 µM: 105%
